Experimental data: patent US7078389B2, “Chemically modified oligonucleotide for site-directed mutagenesis” (priority 1993, dated 2006)
Entries after “also recorded” stand apart in the source; their conditions may differ.

Tests used:
duplex supF DNA = experiment: UVA-induced covalent bond formation to duplex supF DNA; format: binding, E. coli; conditions: following UVA irradiation
[1] = system: supF gene of the lambda vector; experiment: Sequence analysis of supF mutants from lambda vector; parameters: species or system E. coli; conditions: plus UVA
From the text: FIGS. 2A and 2B show a sequence analysis of targeted mutagenesis in the supF gene by the psoralen-linked triplex-forming oligonucleotide (pso-AG10). In FIG. 2A, mutations produced by pso-AG10 and UVA are indicated above each base pair, with the listed base representing the change from the sequence in the top strand. […] The asterisk indicates the targeted base pair at position 167. DNA sequence data was obtained by automated methods after polymerase chain reaction amplification of the supF genes from lambda phage plaques in accordance with the method of Connell et al., Biotechniques 5:342 (1987). FIG. 2B is a compilation of mutations induced in supF by 8-methoxypsoralen and UVA in mouse L-cells using the lambda supF vector of FIG. 1 or generated using a plasmid shuttle vector in monkey Vero cells in accordance with the method of Bredberg and Nachmansson, Carcinogenesis 8:1923 (1987), to compare the mutations produced in supF by free psoralen with those produced by the triplex forming oligonucleotide AG10.
To obtain direct evidence for targeted mutagenesis, a series of independent mutants produced in the supF gene of the lambda vector by pso-AG10 and UVA were sequenced. […] The A:T base pair at 167 forms a triplet with the 5′ adenine to which the psoralen is tethered in AG10, and so it is the closest base pair to the psoralen. The overwhelming predominance of the T:A to A:T transversion at this site is consistent with the mutagenic action of psoralen, which tends to form adducts at pyrimidines, and especially at thymidines. It should be noted that these mutations are independent and none of the mutations represent siblings because each packaged lambda particle gives rise to a single, separate lambda plaque on the bacterial lawn.

250 bp supF PCR fragment = experiment: Hinf I restriction enzyme protection assay, PCR amplified supF target; format: binding, E. coli; conditions: 100-fold molar excess of oligonucleotide
From the text: FIG. 4 is a schematic representation showing the basis of a restriction enzyme protection assay to detect site-specific triplex formation within the supF gene. The formation of triplex DNA by psoralen-AG10 at its targeted site (bp 167–176 of the supF gene) overlaps with the Hinf I restriction site at bp 164–168 (indicated in the diagram by the box around the appropriate base pairs). Digestion of the unprotected 250 bp supF PCR fragment with Hinf I is expected to yield three fragments of sizes 150, 65, and 35 bp. In contrast, with the Hinf I site at bp 164–168 blocked by triplex formation at bp 167–176, fragments of sizes 150 and 100 bp are predicted.
The 250 bp supF target (70 nM) was incubated with a 100-fold molar excess of psoralen-AG10 as described for the binding assay. Irradiation of samples was performed at a dose of 1.8 J/cm^2. A radiometer was used to measure the lamp output (typical UVA irradiance of 5–7 mW/cm^2 at 320–400 nm). Following the binding and irradiation steps, samples were digested for 2 hours at 37° C. with Hinf I. Loading buffer was added and samples were heated 10 minutes at 55° C., and run for 1 hour on a 4.5% Nusieve gel in TAE buffer at 80 v (10 v/cm).
Site-specific formation of triplex DNA. […] This is diagrammed in FIG. 4. […] Analysis by agarose gel electrophoresis of Hinf I digestions of the 250 bp supF gene PCR fragment under various conditions was done. The supF fragment was incubated with or without psoralen-AG10 at a 100-fold molar excess, treated by 1.8 J/cm^2 of UVA irradiation, and then subjected to Hinf I digestion. Digestion of the unprotected 250 bp supF PCR fragment with Hinf I yielded three fragments of sizes 150, 65, and 35 in contrast with the uncut fragment of 250 bp. […] In the absence of psoralen-AG10, UVA light had no effect on Hinf I digestion.

[2] = system: supF gene in lambda supF DNA; experiment: Targeted mutagenesis of supF gene in lambda supF DNA (in vitro packaging, plaques on E. coli); conditions: for supF mutations per 1000 phage: lambda DNA 3 nM; for supF mutation frequency: plus UVA 1.8 J/cm^2
Procedure: Targeted mutagenesis was achieved by incubating pso-AG10 with lambda supF DNA in vitro to form triplex at positions 167 to 176 of the supF gene and bring the tethered psoralen into proximity with the targeted base pair at position 167 as shown in Table 1. The numbers in the table represent the frequency of mutations seen in either the supF gene or the cI gene in the lambda supF genome following the indicated treatment. The lambda DNA at 3 nM was incubated with or without a 1000-fold molar excess of the indicated oligonucleotides (3 μM) as described in FIG. 2.
UVA (365 nm) irradiation of selected samples was performed at a dose of 1.8 J/cm^2. A radiometer was used to measure lamp output (typical UVA irradiance of 5–7 mW/cm^2 at 320–400 nm). The DNA was packaged in vitro into phage particles, using the method of Hohn, Methods in Enzymology 68:299–309 (1979), and the phage particles were adsorbed to E. coli and grown as individual plaques to allow genetic analyses of the supF and cI genes.
Photoactivation of the psoralen generated a DNA adduct, and in vitro packaging of the psoralen-AG10. The lambda supF DNA complex allowed growth of the phage in bacteria to fix the adduct into a mutation. The phage particles were grown as individual plaques on a bacterial lawn to detect targeted mutagenesis in the supF gene and to measure the extent of non-targeted mutagenesis by screening for the function of an unrelated gene, the lambda repressor (cI) gene. Mutations in these genes yield colorless plaques among blue ones and clear plaques among turbid ones, respectively.

[3] = supF fragment 70 nM, UVA 1.8 J/cm^2
[4] = oligonucleotide 3 μM (1000-fold molar excess), UVA 1.8 J/cm^2

Substance	Covalent bond to labeled duplex supF DNA (duplex supF DNA)	Share of sequenced supF mutations that are the T:A to A:T transversion at targeted base pair 167 ([1]; 25 mutants) [%]	Position of supF mutations relative to targeted base pair 167 [1]	Protection from Hinf I digestion (250 bp supF PCR fragment; no UVA)	Protection from Hinf I digestion (250 bp supF PCR fragment; [3])	supF mutations per 1000 phage [2, 4]	supF mutations per 1000 phage ([2]; oligonucleotide 3 μM, no UVA)	supF mutagenesis without UVA ([2]; no UVA)	Difference between supF and cI mutation frequency ([2]; plus UVA)	Specificity of targeted mutagenesis considering target size of cI (765 bp) and supF (184 bp) ([2]; plus UVA) [fold]	supF mutation frequency [2] [%]	Fold lower frequency of supF mutations than pso-AG10 ([2]; plus UVA) [fold]	Mutagenesis relative to background (untreated lambda DNA) ([2]; plus UVA)
4′-hydroxymethyl-4,5′,8-trimethylpsoralen-^5′AGGAAGGGGG^3′ (DNA NAGGAAGGGGG; 4'-hydroxymethyl-4,5',8-trimethylpsoralen conjugated at 5' end, further chemistry not given here) [pso-AG10]	formed a covalent bond to labeled duplex supF DNA following UVA irradiation	56	All except one of the 25 mutations produced by pso-AG10 is at or near the targeted T:A base pair at position 167; also recorded: almost all were targeted by the triplex-forming oligonucleotide	not sufficient to prevent Hinf I digestion	protection of the Hinf I site at bp 164–168 but not the one at bp 129–133	2.33 (263/112.872) per 1000 phage	<0.014 (0/69.000) per 1000 phage	No significant mutagenesis	approximately 100 fold	≤ 500	0.233		
pso-^5′GGGGGAAGGA^3′ (DNA NGGGGGAAGGA; psoralen conjugated at 5' end, further chemistry not given here) [pso-GA10, reference compound]	did not		Neither of the two mutations induced by the reverse oligomer, pso-GA10, were found to occur at base pair 167		no protection from Hinf I cutting	0.004 (2/504.198) per 1000 phage			5 fold		0.0004	582	barely above background
